Consider one molecule from paper PMC7391777, “Inhibition of acetyl-CoA carboxylase by spirotetramat causes growth arrest and lipid depletion in nematodes” (Scientific Reports, 2020).

This assay concerns the target T1, C. elegans ACC (POD-2) (Caenorhabditis elegans, UniProt H2L0M0).
T1 construct: native enzyme in total protein extract of C. elegans pellet, not purified
As to the kind of experiment: ACC activity in total protein extract, radiolabeled sodium bicarbonate. Conditions: total protein extract of C. elegans. In kind it is biochemical.

T1 sequence (H2L0M0 1-2165): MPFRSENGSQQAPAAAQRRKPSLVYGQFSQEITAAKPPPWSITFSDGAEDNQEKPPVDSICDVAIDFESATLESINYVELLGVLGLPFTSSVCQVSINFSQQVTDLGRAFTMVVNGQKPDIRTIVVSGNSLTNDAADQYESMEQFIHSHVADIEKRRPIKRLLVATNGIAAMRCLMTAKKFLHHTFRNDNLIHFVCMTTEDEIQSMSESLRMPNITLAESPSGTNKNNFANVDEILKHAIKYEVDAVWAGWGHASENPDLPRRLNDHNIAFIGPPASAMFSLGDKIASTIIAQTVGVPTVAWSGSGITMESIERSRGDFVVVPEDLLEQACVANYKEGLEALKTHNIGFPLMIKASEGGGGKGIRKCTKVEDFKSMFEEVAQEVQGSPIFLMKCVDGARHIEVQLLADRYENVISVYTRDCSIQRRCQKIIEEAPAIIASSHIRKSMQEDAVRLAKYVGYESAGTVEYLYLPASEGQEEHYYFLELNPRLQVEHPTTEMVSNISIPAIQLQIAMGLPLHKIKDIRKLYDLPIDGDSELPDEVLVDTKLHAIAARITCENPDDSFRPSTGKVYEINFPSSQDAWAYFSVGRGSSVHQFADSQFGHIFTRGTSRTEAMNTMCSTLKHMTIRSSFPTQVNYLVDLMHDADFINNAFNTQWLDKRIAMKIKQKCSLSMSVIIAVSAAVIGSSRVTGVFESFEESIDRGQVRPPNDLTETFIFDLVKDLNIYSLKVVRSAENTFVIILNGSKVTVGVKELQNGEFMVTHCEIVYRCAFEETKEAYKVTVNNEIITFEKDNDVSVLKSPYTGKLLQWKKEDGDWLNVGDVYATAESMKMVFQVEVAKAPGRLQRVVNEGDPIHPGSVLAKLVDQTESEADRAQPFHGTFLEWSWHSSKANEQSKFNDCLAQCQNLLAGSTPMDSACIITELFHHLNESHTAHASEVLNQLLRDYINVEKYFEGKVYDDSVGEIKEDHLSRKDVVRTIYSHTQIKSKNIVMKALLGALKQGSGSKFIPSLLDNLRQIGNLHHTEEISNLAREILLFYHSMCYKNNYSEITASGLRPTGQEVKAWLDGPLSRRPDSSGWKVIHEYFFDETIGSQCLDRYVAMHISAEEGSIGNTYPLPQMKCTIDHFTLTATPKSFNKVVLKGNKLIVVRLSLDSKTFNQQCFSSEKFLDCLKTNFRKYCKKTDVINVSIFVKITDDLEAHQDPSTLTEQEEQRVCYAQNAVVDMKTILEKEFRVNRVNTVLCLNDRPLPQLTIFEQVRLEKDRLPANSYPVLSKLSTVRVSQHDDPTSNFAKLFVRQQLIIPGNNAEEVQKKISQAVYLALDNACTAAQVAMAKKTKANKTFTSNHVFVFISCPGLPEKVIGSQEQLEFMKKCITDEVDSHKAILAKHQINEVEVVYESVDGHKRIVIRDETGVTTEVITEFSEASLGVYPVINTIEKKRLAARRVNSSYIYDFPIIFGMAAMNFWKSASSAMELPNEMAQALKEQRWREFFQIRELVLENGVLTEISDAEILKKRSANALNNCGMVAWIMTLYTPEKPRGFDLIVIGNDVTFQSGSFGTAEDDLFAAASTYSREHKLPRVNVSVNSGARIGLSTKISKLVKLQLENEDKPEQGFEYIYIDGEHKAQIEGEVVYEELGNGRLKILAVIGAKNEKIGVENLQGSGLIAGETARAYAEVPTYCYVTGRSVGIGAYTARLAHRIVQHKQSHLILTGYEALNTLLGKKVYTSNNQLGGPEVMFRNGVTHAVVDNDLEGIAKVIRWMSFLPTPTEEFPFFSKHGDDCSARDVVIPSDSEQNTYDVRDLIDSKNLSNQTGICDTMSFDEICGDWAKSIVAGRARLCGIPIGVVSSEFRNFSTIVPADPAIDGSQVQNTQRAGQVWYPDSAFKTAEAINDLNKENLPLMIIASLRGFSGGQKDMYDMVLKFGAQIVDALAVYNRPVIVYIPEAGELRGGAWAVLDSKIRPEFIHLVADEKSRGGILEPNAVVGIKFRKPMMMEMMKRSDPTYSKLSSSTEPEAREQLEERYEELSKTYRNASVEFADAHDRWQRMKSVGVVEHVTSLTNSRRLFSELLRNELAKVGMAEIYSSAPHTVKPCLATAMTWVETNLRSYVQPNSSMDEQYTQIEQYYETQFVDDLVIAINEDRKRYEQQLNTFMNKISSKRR

Turning to `COC1CCC2(CC1)NC(=O)C(c1cc(C)ccc1C)=C2O` (stereo not shown) [SPT-enol], the IC50 turned out to be 50 µM.
